From paper PMC9458058, “Synthesis of N-Substituted Iminosugar C-Glycosides and Evaluation as Promising α-Glucosidase Inhibitors” (Molecules, 2022)
Like-named read-outs stand apart in the source and are kept apart here.

Assays:
α-glucosidase from yeast = α-glucosidase from yeast (Saccharomyces cerevisiae, UniProt P53341); experiment: biochemical; type: biochemical; conditions: for inhibition of α-glucosidase, in words: Figure 3, 1 µg/mL, relative to lead compound 4 / Acarbose; for inhibition potency compared with compound 5λ, in words: Table 2
Sequence of α-glucosidase from yeast (P53341 whole entry): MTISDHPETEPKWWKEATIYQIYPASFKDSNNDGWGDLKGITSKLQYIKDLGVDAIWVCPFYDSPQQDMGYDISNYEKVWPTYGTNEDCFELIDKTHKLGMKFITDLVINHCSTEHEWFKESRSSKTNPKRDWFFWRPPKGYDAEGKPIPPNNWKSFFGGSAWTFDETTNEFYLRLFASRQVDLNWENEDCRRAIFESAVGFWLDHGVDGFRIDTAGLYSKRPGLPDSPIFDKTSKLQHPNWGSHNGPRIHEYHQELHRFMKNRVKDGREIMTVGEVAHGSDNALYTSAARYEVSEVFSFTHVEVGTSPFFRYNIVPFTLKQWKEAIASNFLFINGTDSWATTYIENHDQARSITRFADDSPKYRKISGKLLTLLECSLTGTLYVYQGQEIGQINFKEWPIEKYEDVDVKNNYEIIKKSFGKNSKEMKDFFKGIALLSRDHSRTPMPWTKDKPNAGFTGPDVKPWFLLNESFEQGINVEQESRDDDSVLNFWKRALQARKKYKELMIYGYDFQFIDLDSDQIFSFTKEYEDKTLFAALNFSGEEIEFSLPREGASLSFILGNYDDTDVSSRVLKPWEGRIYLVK
Procedure: The inhibitory potency of the synthesized N-substituted iminosugar C-glycosides 5 was assessed by testing the compounds in assays for the α-glucosidase from yeast. […] Alternatively, N atom was modified with various benzaldehydes, giving a library of iminosugar C-glycosides containing phenyl.
The extracts of each sample were dissolved in distilled water to prepare a certain concentration. 150 µL of the sample solution was mixed with 150 µL of maltose solution (prepared with 0.2 M, pH = 6.8 phosphate buffer) at a certain concentration, and cultured at 37 °C for 10 min. Then 150 µL of the enzyme solution at a certain concentration was added and mixed. The reaction was carried out at 37 °C for 60 min. The reaction was terminated in a boiling water bath for 10 min and centrifuged at 3000 r/min for 10 min. The supernatant was taken to determine the content of glucose with Glu kit. […] Enzyme activity inhibition rate (%) = (negative-sample)/(negative-blank) × 100%.

α-glucosidase = α-glucosidase (Saccharomyces cerevisiae, UniProt P53341); experiment: Enzyme kinetics experiment (ultrafiltration recovery, Lineweaver-Burk plots); type: biochemical
Sequence of α-glucosidase (P53341 whole entry): as above
Excerpt: To determine which mechanism 6e belonged to, we removed the unreacted inhibitor from the enzyme solution by ultrafiltration, and examined whether the activity would be recovered or not by the method described in the literatures. When an enzyme solution containing 6e was subjected to ultrafiltration and then redissolved with the same concentration, the α-glucosidase activity was substantially recovered (Figure 5A).
Further analysis of the compound 6e, in order to reveal the type of enzyme inhibition on α-glucosidase, was done with different substrate concentration.
Enzyme kinetics experiment: The principle of the experimental method is the same as that of the above method, in which the micro-membrane centrifuge tube with a pore diameter of 3K is used for small molecule centrifugal separation. In the enzyme kinetics experiment, the concentration of enzyme was set at a fixed concentration, and five concentration gradients were designed for the solution of substrate maltose. The linear relationship was plotted using the obtained results combined with the Michaelis-Menten equation.

[1] = read-out: IC50 against α-glucosidase from yeast

Compound: CC(=O)C[C@H]1NC[C@@H](O)[C@@H](O)[C@H]1O [Compound 4, 1-C-Acetylmethyl-5-deoxy-5-amino-α-D-ribopyranoside]
- IC50 (α-glucosidase from yeast): > 20 µM
- inhibition of α-glucosidase, in words (α-glucosidase from yeast): weak inhibitory activity

Compound: CCCN1C[C@@H](O)[C@@H](O)[C@@H](O)[C@H]1CC(C)=O [Compound 5a, (1R, 2S, 3R, 4R)-1-Acetylmethyl-2,3,4-trihydroxyl-N-n-propylpiperidine]
- inhibition of α-glucosidase, in words (α-glucosidase from yeast): no improvement of α-glucosidase inhibition

Compound: CC(=O)CC1C(O)C(O)C(O)CN1Cc1ccc(C)cc1 [Compound 5j, (1R, 2S, 3R, 4R)-1-Acetylmethyl-2,3,4-trihydroxyl-N-4-methylbenzylpiperidine]
- inhibition of α-glucosidase, in words (α-glucosidase from yeast): The same result was obtained

Compound: CC(=O)CC1C(O)C(O)C(O)CN1Cc1cccc(C)c1 [Compound 5k, (1R, 2S, 3R, 4R)-1-Acetylmethyl-2,3,4-trihydroxyl-N-3-methylbenzylpiperidine]
- inhibition of α-glucosidase, in words (α-glucosidase from yeast): The same result was obtained

Compound: CC(=O)CC1C(O)C(O)C(O)CN1Cc1ccc(C(F)(F)F)cc1 [Compound 5l, (1R, 2S, 3R, 4R)-1-Acetylmethyl-2,3,4-trihydroxyl-N-4-trifluoromethylbenzylpiperidine]
- inhibition of α-glucosidase, in words (α-glucosidase from yeast): The same result was obtained

Compound: CC(=O)CC1C(O)C(O)C(O)CN1Cc1ccc(C#N)cc1 [Compound 5m, (1R, 2S, 3R, 4R)-1-Acetylmethyl-2,3,4-trihydroxyl-N-4-cyanobenzylpiperidine]
- inhibition of α-glucosidase, in words (α-glucosidase from yeast): The same result was obtained

Compound: CC(=O)CC1C(O)C(O)C(O)CN1Cc1ccc([N+](=O)[O-])cc1 [Compound 5n, (1R, 2S, 3R, 4R)-1-Acetylmethyl-2,3,4-trihydroxyl-N-4-nitrobenzylpiperidine]
- inhibition of α-glucosidase, in words (α-glucosidase from yeast): The same result was obtained

Compound: COc1ccc(CN2C[C@@H](O)[C@@H](O)[C@@H](O)[C@H]2CC(C)=O)cc1 [Compound 5o, (1R, 2S, 3R, 4R)-1-Acetylmethyl-2,3,4-trihydroxyl-N-4-methoxylbenzylpiperidine]
- inhibition of α-glucosidase, in words (α-glucosidase from yeast): The same result was obtained

Compound: COc1cccc(CN2C[C@@H](O)[C@@H](O)[C@@H](O)[C@H]2CC(C)=O)c1 [Compound 5p, (1R, 2S, 3R, 4R)-1-Acetylmethyl-2,3,4-trihydroxyl-N-3-methoxylbenzylpiperidine]
- inhibition of α-glucosidase, in words (α-glucosidase from yeast): The same result was obtained

Compound: CC(=O)CC1C(O)C(O)C(O)CN1Cc1ccc(Cl)cc1 [Compound 5q, (1R, 2S, 3R, 4R)-1-Acetylmethyl-2,3,4-trihydroxyl-N-4-chlorobenzylpiperidine]
- inhibition of α-glucosidase, in words (α-glucosidase from yeast): doesn’t show any significant improvement

Compound: CC(=O)CC1C(O)C(O)C(O)CN1Cc1ccccc1Cl [Compound 5r, (1R, 2S, 3R, 4R)-1-Acetylmethyl-2,3,4-trihydroxyl-N-2-chlorobenzylpiperidine]
- IC50 (α-glucosidase from yeast): 12 µM
- inhibition of α-glucosidase, in words (α-glucosidase from yeast): enhanced the enzyme inhibition

Compound: CC(=O)CC1C(O)C(O)C(O)CN1Cc1cccc(Cl)c1 [Compound 5t, (1R, 2S, 3R, 4R)-1-Acetylmethyl-2,3,4-trihydroxyl-N-3-chlorobenzylpiperidine]
- inhibition of α-glucosidase, in words (α-glucosidase from yeast): doesn’t show any significant improvement

Compound: CC(=O)CC1C(O)C(O)C(O)CN1Cc1ccc(Br)cc1 [Compound 5u, (1R, 2S, 3R, 4R)-1-Acetylmethyl-2,3,4-trihydroxyl-N-4-bromobenzylpiperidine]
- inhibition of α-glucosidase, in words (α-glucosidase from yeast): doesn’t show any significant improvement

Compound: CC(=O)CC1C(O)C(O)C(O)CN1Cc1ccccc1Br [Compound 5v, (1R, 2S, 3R, 4R)-1-Acetylmethyl-2,3,4-trihydroxyl-N-2-bromobenzylpiperidine]
- inhibition of α-glucosidase, in words (α-glucosidase from yeast): enhanced the enzyme inhibition

Compound: CC(=O)CC1C(O)C(O)C(O)CN1Cc1cccc(Br)c1 [Compound 5w, (1R, 2S, 3R, 4R)-1-Acetylmethyl-2,3,4-trihydroxyl-N-3-bromobenzylpiperidine]
- inhibition of α-glucosidase, in words (α-glucosidase from yeast): doesn’t show any significant improvement

Compound: CC(=O)CC1C(O)C(O)C(O)CN1Cc1ccc(F)cc1 [Compound 5x, (1R, 2S, 3R, 4R)-1-Acetylmethyl-2,3,4-trihydroxyl-N-4-fluorobenzylpiperidine]
- inhibition of α-glucosidase, in words (α-glucosidase from yeast): doesn’t show any significant improvement

Compound: CC(=O)CC1C(O)C(O)C(O)CN1Cc1ccccc1F [Compound 5y, (1R, 2S, 3R, 4R)-1-Acetylmethyl-2,3,4-trihydroxyl-N-2-fluorobenzylpiperidine]
- inhibition of α-glucosidase, in words (α-glucosidase from yeast): doesn’t show any significant improvement

Compound: CC(=O)CC1C(O)C(O)C(O)CN1Cc1cccc(F)c1 [Compound 5z, (1R, 2S, 3R, 4R)-1-Acetylmethyl-2,3,4-trihydroxyl-N-3-fluorobenzylpiperidine]
- inhibition of α-glucosidase, in words (α-glucosidase from yeast): doesn’t show any significant improvement

Compound: CC(=O)CC1C(O)C(O)C(O)CN1Cc1ccccc1O [Compound 5θ, (1R, 2S, 3R, 4R)-1-Acetylmethyl-2,3,4-trihydroxyl-N-2-hydroxylbenzylpiperidine]
- IC50 (α-glucosidase from yeast): > 20 µM
- inhibition of α-glucosidase, in words (α-glucosidase from yeast): reduced the inhibitory potency significantly

Compound: CC(=O)CC1C(O)C(O)C(O)CN1Cc1ccc(O)cc1 [Compound 5λ, (1R, 2S, 3R, 4R)-1-Acetylmethyl-2,3,4-trihydroxyl-N-4-hydroxylbenzylpiperidine]
- IC50 (α-glucosidase from yeast): 7.4 µM
- inhibition of α-glucosidase, in words (α-glucosidase from yeast): improved the enzyme inhibition

Compound: CC(=O)CC1C(O)C(O)C(O)CN1Cc1cccc(O)c1 [Compound 5π, (1R, 2S, 3R, 4R)-1-Acetylmethyl-2,3,4-trihydroxyl-N-3-hydroxylbenzylpiperidine]
- IC50 (α-glucosidase from yeast): > 20 µM
- inhibition of α-glucosidase, in words (α-glucosidase from yeast): reduced the inhibitory potency significantly

Compound: CC(=O)C[C@@H]1[C@H](O)[C@H](O)[C@H](O)CN1Cc1ccc(O)c(Cl)c1 [Compound 6a, (1R, 2S, 3R, 4R)-1-Acetylmethyl-2,3,4-trihydroxyl-N-3-chloro-4-hydroxylbenzylpiperidine]
- inhibition potency compared with compound 5λ, in words (α-glucosidase from yeast): slightly improve the inhibition potency
- IC50 (α-glucosidase from yeast; [1]): 5.6 µM

Compound: CC(=O)C[C@@H]1[C@H](O)[C@H](O)[C@H](O)CN1Cc1ccc(O)c(Br)c1 [Compound 6b, (1R, 2S, 3R, 4R)-1-Acetylmethyl-2,3,4-trihydroxyl-N-3-bromo-4-hydroxylbenzylpiperidine]
- inhibition potency compared with compound 5λ, in words (α-glucosidase from yeast): slightly improve the inhibition potency
- IC50 (α-glucosidase from yeast; [1]): 5.3 µM

Compound: CC(=O)C[C@@H]1[C@H](O)[C@H](O)[C@H](O)CN1Cc1ccc(O)c(F)c1 [Compound 6c, (1R, 2S, 3R, 4R)-1-Acetylmethyl-2,3,4-trihydroxyl-N-3-fluoro-4-hydroxylbenzylpiperidine]
- inhibition potency compared with compound 5λ, in words (α-glucosidase from yeast): slightly improve the inhibition potency
- IC50 (α-glucosidase from yeast; [1]): 3.3 µM

Compound: CC(=O)C[C@@H]1[C@H](O)[C@H](O)[C@H](O)CN1Cc1ccc(O)cc1Cl [Compound 6d, (1R, 2S, 3R, 4R)-1-Acetylmethyl-2,3,4-trihydroxyl-N-2-chloro-4-hydroxylbenzylpiperidine]
- inhibition compared with positive control Acarbose, in words (α-glucosidase from yeast): equivalent to positive control Acarbose
- IC50 (α-glucosidase from yeast; [1]): 2.4 µM

Compound: CC(=O)C[C@@H]1[C@H](O)[C@H](O)[C@H](O)CN1Cc1c(Cl)cc(O)cc1Cl [Compound 6e, (1R, 2S, 3R, 4R)-1-Acetylmethyl-2,3,4-trihydroxyl-N-2,6-dichloro-4-hydroxylbenzylpiperidine]
- inhibition compared with positive control Acarbose, in words (α-glucosidase from yeast): stronger inhibitory potency than positive control Acarbose
- inhibitory potency relative to positive control Acarbose (α-glucosidase from yeast): 2 fold
- IC50 (α-glucosidase from yeast; [1]): 0.9 µM
- type of enzyme inhibition (α-glucosidase; Lineweaver-Burk plots): uncompetitive inhibitor
- Ki (α-glucosidase; Lineweaver-Burk plots, different substrate concentration): 8.6 µM
- reversibility of inhibition (α-glucosidase; enzyme activity after removal of inhibitor by ultrafiltration): reversible inhibitor

Compound: COc1cc(CN2C[C@@H](O)[C@@H](O)[C@@H](O)[C@H]2CC(C)=O)ccc1O [Compound 6f, (1R, 2S, 3R, 4R)-1-Acetylmethyl-2,3,4-trihydroxyl-N-4-hydroxyl-methoxylbenzylpiperidine]
- IC50 (α-glucosidase from yeast): > 20 µM
- inhibition potency compared with compound 5λ, in words (α-glucosidase from yeast): severely diminishes the inhibition

Compound: CCOc1cc(CN2C[C@@H](O)[C@@H](O)[C@@H](O)[C@H]2CC(C)=O)ccc1O [Compound 6g, (1R, 2S, 3R, 4R)-1-Acetylmethyl-2,3,4-trihydroxyl-N-3-ethyoxyl-4-hydroxylbenzylpiperidine]
- IC50 (α-glucosidase from yeast): > 20 µM
- inhibition potency compared with compound 5λ, in words (α-glucosidase from yeast): severely diminishes the inhibition

Compound: COc1ccc(CN2C[C@@H](O)[C@@H](O)[C@@H](O)[C@H]2CC(C)=O)cc1O [Compound 6h, (1R, 2S, 3R, 4R)-1-Acetylmethyl-2,3,4-trihydroxyl-N-3-hydroxyl-4-methoxylbenzylpiperidine]
- IC50 (α-glucosidase from yeast): > 20 µM

Compound: CC(=O)C[C@@H]1[C@H](O)[C@H](O)[C@H](O)CN1Cc1cc(Br)c(O)c(Br)c1 [Compound 6i, (1R, 2S, 3R, 4R)-1-Acetylmethyl-2,3,4-trihydroxyl-N-3,5-dibromo-4-hydroxylbenzylpiperidine]
- inhibition potency compared with compound 5λ, in words (α-glucosidase from yeast): slightly improve the inhibition potency
- IC50 (α-glucosidase from yeast; [1]): 5.5 µM
